Data: ChEMBL document CHEMBL1153131, “Synthesis and antitumor activity of novel 2',3'-dideoxy-2',3'-diethanethionucleosides bearing 1,2,3-triazole residues” (Bioorg Med Chem Lett, 2010)

Tests used:
Type in all cases: functional, cell-based
HepG2 = experiment: Cytotoxicity against human HepG2 cells after 72 hrs by MTT assay
[1] = Cytotoxicity against human LAC cells after 72 hrs by MTT assay
A549 = experiment: Cytotoxicity against human A549 cells after 72 hrs by MTT assay; conditions: A549, 72 h
HeLa = experiment: Cytotoxicity against human HeLa cells after 72 hrs by MTT assay
[2] = Homo sapiens, HepG2, 72 h, read-out: EC50
[3] = Homo sapiens, LAC, 72 h, read-out: EC50

CCS[C@@H]1[C@H](SCC)[C@@H](CO)O[C@H]1n1cc(Cn2cc(C)c(=O)[nH]c2=O)nn1
EC50 (HepG2; [2]): > 100 µM
EC50 [1, 3]: > 100 µM
EC50 (A549): > 100 µM
EC50 (HeLa): > 100 µM

CCS[C@@H]1[C@H](SCC)[C@@H](CO)O[C@H]1n1cc(CO)nn1
EC50 (HepG2; [2]): > 100 µM
EC50 [1, 3]: > 100 µM
EC50 (A549): > 100 µM
EC50 (HeLa): > 100 µM

CCS[C@@H]1[C@H](SCC)[C@@H](CO)O[C@H]1n1cc(Cn2ccc(N)nc2=O)nn1
EC50 (HepG2; [2]): > 100 µM
EC50 [1, 3]: > 100 µM
EC50 (A549): > 100 µM
EC50 (HeLa): > 100 µM

CCS[C@@H]1[C@H](SCC)[C@@H](CO)O[C@H]1n1cc(-c2ccccc2)nn1
EC50 (HepG2; [2]): 9.6 µM
EC50 [1, 3]: 20.7 µM
EC50 (A549): 44.1 µM
EC50 (HeLa): 11.2 µM

CCS[C@@H]1[C@H](SCC)[C@@H](CO)O[C@H]1n1cc(C)c(=O)[nH]c1=O
EC50 (HepG2; hepg2): Not Active
EC50 ([1]; lac): Not Active
EC50 (A549): 86.4 µM
EC50 (HeLa): 29.5 µM

CCS[C@@H]1[C@H](SCC)[C@@H](CO)O[C@H]1n1cc(C(=O)NC)nn1
EC50 (HepG2; [2]): > 100 µM
EC50 [1, 3]: > 100 µM
EC50 (A549): > 100 µM
EC50 (HeLa): > 100 µM

CCS[C@@H]1[C@H](SCC)[C@@H](CO)O[C@H]1n1cc(-c2ccc(F)cc2)nn1
EC50 (HepG2; [2]): 9.62 µM
EC50 [1, 3]: 16.2 µM
EC50 (A549): 20.2 µM
EC50 (HeLa): 6.92 µM

CCS[C@@H]1[C@H](SCC)[C@@H](CO)O[C@H]1n1cc(-c2ccc(OC)cc2)nn1
EC50 (HepG2; [2]): 11 µM
EC50 [1, 3]: 14.5 µM
EC50 (A549): 23.4 µM
EC50 (HeLa): 5.69 µM

CCS[C@@H]1[C@H](SCC)[C@@H](CO)O[C@H]1n1ccc(=O)[nH]c1=O
EC50 (HepG2; [2]): 74.7 µM
EC50 ([1]; lac): Not Active
EC50 (A549): 87.4 µM
EC50 (HeLa): 75.7 µM

CCS[C@@H]1[C@H](SCC)[C@@H](CO)O[C@H]1n1ccc(N)nc1=O
EC50 (HepG2; [2]): 116 µM
EC50 ([1]; lac): Not Active
EC50 (A549): 86.4 µM
EC50 (HeLa): 177 µM

O=c1[nH]c(=O)n([C@H]2C[C@H](O)[C@@H](CO)O2)cc1F [FLOXURIDINE]
EC50 (HepG2; [2]): 18.8 µM
EC50 [1, 3]: 32.1 µM
EC50 (A549): 9.74 µM
EC50 (HeLa): 10.3 µM
